Laboratory results reported in patent US5565200A, “Pharmaceutical preparations derived from korean mistletoe” (priority 1995, dated 1996).

Key:
[1] = Weight change of tumor-bearing mice to assess toxic effects; type: in vivo; conditions: 98 mg/kg, i.p., qd (1,7,14,21)
Text: (§1) Anticancer activities of n-T4GEN were studied in animals bearing subcutaneous transplants of C3H Mammary adenocarcinoma 16/C. This tumor is maintained as a lung passed tumor in C3H female mice. In this example, tumors (1×10^6 cells) were transplanted (S.C.) in 18-20 g B6C3F^1 hybrid female mice. On the following day, the tumor bearing animals were randomized and separated into different treatment groups (10 mice per group). There were 15 animals in the control group who received only physiological saline during the treatment periods. The treatments (i.p.) were started 48 hours after the transplants and given for a duration of 14 days (daily single injections). Animals were weighed on days 5, 9 and 14 to assess toxic effects. Tumors were measured on days 21, 28 post transplants and the results are represented as tumor weights using formula [formula]

[2] = test system: C3H Mammary adenocarcinoma 16/C; assay: Growth of subcutaneous transplants of C3H mammary adenocarcinoma 16/C in B6C3F1 female mice; type: in vivo; conditions: 98 mg/kg, i.p., qd (1,7,14,21)
Text: as §1, with “The treatments (i.p.) were started 48 hours after the transplants and given for a duration of 14 days (daily single injections).” left out

Which results are given for `O=c1[nH]cc(F)c(=O)[nH]1` [5Fluorouracil]?
Δ Wts (g) (day 14) [1]: +1.77 g; Tumor Free Animals (day 93) [2]: 0/6; Tumor Inhibition % [2]: 100%; Tumor Wts (day 21) [2]: 0.00
